{
  "source": "patent US20200038423A1",
  "about": "“USE OF 6-O-(C8-C20 ALKYL ESTER) OF 1-O-(C1-C6 ALKYL)-ß-D-GLUCOSIDE AS AN AGENT FOR PROTECTING THE SKIN” (PIERRE FABRE DERMO-COSMETIQUE, priority 2016, published 2020)",
  "assay_type_in_all_cases": "cell-based",
  "key": {"SULT2B1": {"system": "SULT2B1", "assay": "RT-qPCR, modulation of genes involved in keratinocyte differentiation and hydration: SULT2B1", "details": "CaCl2 1.5 mM; normal human keratinocytes, 48 h; lipid differentiation marker", "method": "(§1) Normal human keratinocytes were incubated for 48 h with 1-O-n-butyl-β-D-glucoside 6-O-lauroyl. Its effects were evaluated using the RT-qPCR technique with the analysis of 6 target genes, chosen for their importance in keratinocyte differentiation and hydration."}, "KLK7": {"system": "KLK7", "assay": "RT-qPCR, modulation of genes involved in keratinocyte differentiation and hydration: KLK7", "details": "CaCl2 1.5 mM; normal human keratinocytes, 48 h; protein differentiation marker", "method": "as §1"}, "TGM1": {"system": "TGM1", "assay": "RT-qPCR, modulation of genes involved in keratinocyte differentiation and hydration: TGM1", "details": "CaCl2 1.5 mM; normal human keratinocytes, 48 h; protein differentiation marker", "method": "as §1"}, "CASP14": {"system": "CASP14", "assay": "RT-qPCR, modulation of genes involved in keratinocyte differentiation and hydration: CASP14", "details": "CaCl2 1.5 mM; normal human keratinocytes, 48 h; protein differentiation marker", "method": "as §1"}, "FABP5": {"system": "FABP5", "assay": "RT-qPCR, modulation of genes involved in keratinocyte differentiation and hydration: FABP5", "details": "CaCl2 1.5 mM; normal human keratinocytes, 48 h; lipid differentiation marker", "method": "as §1"}, "DEGS2": {"system": "DEGS2", "assay": "RT-qPCR, modulation of genes involved in keratinocyte differentiation and hydration: DEGS2", "details": "CaCl2 1.5 mM; normal human keratinocytes, 48 h; lipid differentiation marker", "method": "as §1"}, "[1]": {"system": "Normal human keratinocytes", "assay": "Keratinocyte differentiation judged from RT-qPCR of 6 target genes", "details": "20 μM, incubation for 48 h", "method": "as §1"}, "[2]": {"system": "primary normal human keratinocytes", "assay": "Oris Cell Migration Assay, keratinocyte migration", "details": "for % Stim (% stimulation of keratinocyte migration): 24 h migration", "method": "Oris™ Cell Migration Assays were used to estimate cell migration.\nPrimary normal human keratinocytes isolated from tissues extracted during cosmetic surgery were seeded on 96-well plates and cultured in KSFM supplemented with 25 μg/ml bovine pituitary extract (BPE, Invitrogen) and 0.2 ng/ml EGF (Invitrogen). After 24 h of incubation, the culture medium is replaced with KSM without supplement. After 24 h of incubation, the Oris™ stoppers as well as the test compounds or positive controls are removed. The latter are 5 ng/ml TGF-β, 30 ng/ml EGF, or KSM supplemented with BPE and EGF. Incubation continues for the next 24 h to allow migration. At the end of incubation, Calcein AM dye, which penetrates the cells, is added to the wells and is converted to fluorescence which is then quantified in a detection zone using a monochromatic microplate (Clariostar, BMG Labteck).\nThe compound tested is 1-O-n-butyl-β-D-glucoside 6-O-lauroyl, it is solubilized in DMSO at a concentration of 100 mM. The compound is tested at 2, 10 and 20 μM. The effect of DMSO at the tested concentrations has no effect on keratinocyte migration. The experiments are repeated on 2 donors with 8 wells for each condition.\nThe quantification of the fluorescence emitted in the detection zone is proportional to keratinocyte migration. Statistical analyses (Mann-Whitney test) are used to analyze the effect of the compound. After fluorescence quantification, the cells were rapidly fixed in 4% paraformaldehyde before eosin-hematoxylin staining and observed under a microscope."}},
  "data": [
    {"compound": "[Ca+2].[Cl-].[Cl-]", "note": "[CaCl2]", "values": [
      {"measurement": "SULT2B1 expression, Mean (% Control)", "setting": "SULT2B1", "value": 1169, "unit": "% Control"},
      {"measurement": "KLK7 expression, Mean (% Control)", "setting": "KLK7", "value": 994, "unit": "% Control"},
      {"measurement": "TGM1 expression, Mean (% Control)", "setting": "TGM1", "value": 910, "unit": "% Control"},
      {"measurement": "CASP14 expression, Mean (% Control)", "setting": "CASP14", "value": 127, "unit": "% Control"},
      {"measurement": "FABP5 expression, Mean (% Control)", "setting": "FABP5", "value": 501, "unit": "% Control"},
      {"measurement": "DEG S2 expression, Mean (% Control)", "setting": "DEGS2", "value": 217, "unit": "% Control"}
    ]},
    {"compound": "CCCCCCCCCCCC(=O)OC[C@H]1O[C@@H](OCCCC)[C@H](O)[C@@H](O)[C@@H]1O", "note": "[β-LBG, 1-O-n-butyl-β-D-glucoside 6-O-lauroyl]", "values": [
      {"measurement": "keratinocyte differentiation", "setting": "[1]", "value": "induces reproducible keratinocyte differentiation"},
      {"measurement": "keratinocyte migration", "setting": "[2]; both donors tested, at either 10 μM or 20 μM", "value": "stimulates keratinocyte migration"},
      {"measurement": "migration of normal human keratinocytes", "setting": "[2]; concentrations of 10 to 20 μM", "value": "significantly stimulates"},
      {"measurement": "% Stim (% stimulation of keratinocyte migration)", "setting": "[2]; donor 1, 2 μM", "value": "−30", "unit": "%"},
      {"measurement": "% Stim (% stimulation of keratinocyte migration)", "setting": "[2]; donor 1, 10 μM", "value": 41, "unit": "%"},
      {"measurement": "% Stim (% stimulation of keratinocyte migration)", "setting": "[2]; donor 1, 20 μM", "value": 104, "unit": "%"},
      {"measurement": "% Stim (% stimulation of keratinocyte migration)", "setting": "[2]; donor 2, 2 μM", "value": 46, "unit": "%"},
      {"measurement": "% Stim (% stimulation of keratinocyte migration)", "setting": "[2]; donor 2, 10 μM", "value": 63, "unit": "%"},
      {"measurement": "% Stim (% stimulation of keratinocyte migration)", "setting": "[2]; donor 2, 20 μM", "value": 21, "unit": "%"}
    ]},
    {"compound": "EGF: positive control of migration, 30 ng/ml EGF [reference compound]", "values": [
      {"measurement": "% Stim (% stimulation of keratinocyte migration)", "setting": "[2]; donor 1, 30 ng/ml", "value": 35, "unit": "%"},
      {"measurement": "% Stim (% stimulation of keratinocyte migration)", "setting": "[2]; donor 2, 30 ng/ml", "value": 87, "unit": "%"}
    ]}
  ]
}
